Structures are written as SMILES.

Here are results for three compounds from patent publication US4309559A, “Sulphonamides useful as pesticides” (FBC Limited, priority 1977, dated 1982).

For one assay, the system named is acetylcholinesterase. As to the kind of experiment: Standard test indicative of insecticidal activity: inhibition of acetylcholinesterase. Particulars: 100 micromolar concentration. Format: biochemical.
In assay [1] the test system is Peas (Pisum sativum). As to the kind of experiment: Soil incorporation (attaclay/sand dust), growth regulatory or herbicidal effects, peas. Format: in vivo. Particulars: Lathyrus oleraceus, 504 h, soil incorporation 26 ppm, 21 days, 0=no effect, 100=complete kill, read-out: growth regulatory or herbicidal effect score. A digest of the protocol: (§1)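 Scores (0-100, where 100 means complete kill) were given by visual assessment against untreated plants after 21 days in a 22° C controlled environment room with 14 h of 13,000 lux light daily. Seeds had been sown into compost containing the attaclay/sand dust formulation at 26 or 130 ppm w/v.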

Assay [2] deals with Blackgrass (Alopecurus myosuroides). As to the kind of experiment: Pre-emergence soil surface spray, blackgrass. The assay is classed as in vivo. Particulars: soil surface spray 2.8 kg/ha, 21 days, 0=no effect, 100=complete kill. An excerpt: (§2) Seeds of the plant species listed below were sown in John Innes I potting compost in aluminium pans, 19 cm long×9.5 cm wide×5.0 cm high, one species per pan. The soil surface was then sprayed with a compound listed below, formulated as a solution in 1:1 by volume aqueous acetone except for the compound of Example 44 which was formulated as an aqueous suspension containing 1000 parts per million of the wetting agent Lissapol NX (nonylphenol/ethylene oxide condensate). Each compound was applied at a rate of 2.8 kg of active ingredient per hectare in 450 liters of spray liquid per hectare. The pans were then watered, and placed in a controlled environment room (22° C., relative humidity 65-85%, 14 hours per day artificial illumination at 17,000 lux) for 21 days. The plants were then visually assessed for any growth regulatory or herbicidal effects. All differences from an untreated control were scored on a scale from 0-100, where 0 signifies no effect and 100 signifies complete kill.

A further assay relates to Oat (Avena sativa). Briefly: Post-emergence foliar spray, herbicidal/growth regulant response, oat. The assay is classed as in vivo. As to conditions: 168 h, foliar spray 11.2 kg/ha, 7 days, 0=no effect, 100=complete kill, read-out: herbicidal or growth regulant response index. A digest of the protocol:
(§3)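 Post-emergence treatment at 11.2 kg/ha (two-week-old seedlings; 22° C., 65-85% relative humidity). Seven-day visual rating relative to untreated plants, where 100 means complete kill.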

Assay [3] deals with Sugarbeet (Beta vulgaris). Briefly: Post-emergence foliar spray, herbicidal/growth regulant response, sugarbeet. The assay is classed as in vivo. Particulars: 168 h, foliar spray 11.2 kg/ha, 7 days, 0=no effect, 100=complete kill, read-out: herbicidal or growth regulant response index. In outline: as §3
The subject of assay [4] is Linseed (Linum usitatissimum). As to the kind of experiment: Soil incorporation (attaclay/sand dust), growth regulatory or herbicidal effects, linseed. The assay is classed as in vivo. Particulars: 504 h, soil incorporation 26 ppm, 21 days, 0=no effect, 100=complete kill, read-out: growth regulatory or herbicidal effect score. In outline:
as §1

In assay [5] the test system is Chickweed (Stellaria media). As to the kind of experiment: Pre-emergence soil surface spray, chickweed. The assay is classed as in vivo. Particulars: soil surface spray 2.8 kg/ha, 21 days, 0=no effect, 100=complete kill.
Description: as §2

Another assay has as its system Barley (Hordeum vulgare). Briefly: Pre-emergence soil surface spray, barley. As to conditions: soil surface spray 2.8 kg/ha, 21 days, 0=no effect, 100=complete kill. The assay is classed as in vivo.
Description: as §2

The next assay concerns Oats (Avena sativa). Briefly: Soil incorporation (attaclay/sand dust), growth regulatory or herbicidal effects, oats. Format: in vivo. Particulars: 504 h, soil incorporation 26 ppm, 21 days, 0=no effect, 100=complete kill, read-out: growth regulatory or herbicidal effect score. In outline: as §1
For the next assay, the system named is Maize (Zea mays). As to the kind of experiment: Soil incorporation (attaclay/sand dust), growth regulatory or herbicidal effects, maize. Format: in vivo. As to conditions: 504 h, soil incorporation 26 ppm, 21 days, 0=no effect, 100=complete kill, read-out: growth regulatory or herbicidal effect score. A digest of the protocol:
as §1

Assay [6] has as its system Tomato (Lycopersicon esculentum). As to the kind of experiment: Pre-emergence soil surface spray, tomato. The assay is classed as in vivo. Particulars: soil surface spray 2.8 kg/ha, 21 days, 0=no effect, 100=complete kill.
Description: as §2

In assay [7] the test system is Mustard (Sinapis alba). As to the kind of experiment: Pre-emergence soil surface spray, mustard. Format: in vivo. As to conditions: soil surface spray 2.8 kg/ha, 21 days, 0=no effect, 100=complete kill.
Description: as §2

The test system of assay [8] is Barnyardgrass (Echinochloa crus-galli). As to the kind of experiment: Pre-emergence soil surface spray, barnyardgrass. The assay is classed as in vivo. Particulars: soil surface spray 2.8 kg/ha, 21 days, 0=no effect, 100=complete kill.
Description: as §2

For a further assay, the system named is Cotton (Gossypium sp.). As to the kind of experiment: Pre-emergence soil surface spray, cotton. The assay is classed as in vivo. As to conditions: soil surface spray 2.8 kg/ha, 21 days, 0=no effect, 100=complete kill.
Description: as §2

Assay [9] has as its system Linseed (Linum usitatissimum). As to the kind of experiment: Post-emergence foliar spray, herbicidal/growth regulant response, linseed. Particulars: 168 h, foliar spray 11.2 kg/ha, 7 days, 0=no effect, 100=complete kill, read-out: herbicidal or growth regulant response index. The assay is classed as in vivo. A digest of the protocol: as §3
The next assay deals with Wild Oat (Avena fatua). As to the kind of experiment: Pre-emergence soil surface spray, wild oat. Format: in vivo. As to conditions: soil surface spray 2.8 kg/ha, 21 days, 0=no effect, 100=complete kill.
Description: as §2

For assay [10], the system named is Crabgrass (Digitaria sanguinalis). Briefly: Pre-emergence soil surface spray, crabgrass. The assay is classed as in vivo. Particulars: soil surface spray 2.8 kg/ha, 21 days, 0=no effect, 100=complete kill.
Description: as §2

For assay [11], the system named is Mustard (Sinapis alba). Briefly: Post-emergence foliar spray, herbicidal/growth regulant response, mustard. Format: in vivo. As to conditions: 168 h, foliar spray 11.2 kg/ha, 7 days, 0=no effect, 100=complete kill, read-out: herbicidal or growth regulant response index. A digest of the protocol:
as §3

The subject of assay [12] is Ryegrass (Lolium perenne). As to the kind of experiment: Soil incorporation (attaclay/sand dust), growth regulatory or herbicidal effects, ryegrass. The assay is classed as in vivo. Particulars: 504 h, soil incorporation 26 ppm, 21 days, 0=no effect, 100=complete kill, read-out: growth regulatory or herbicidal effect score. A digest of the protocol: as §1
Assay [13] relates to Ryegrass (Lolium perenne). Briefly: Post-emergence foliar spray, herbicidal/growth regulant response, ryegrass. Format: in vivo. Particulars: 168 h, foliar spray 11.2 kg/ha, 7 days, 0=no effect, 100=complete kill, read-out: herbicidal or growth regulant response index. In outline: as §3
A further assay deals with Carrot (Daucus carota). Briefly: Pre-emergence soil surface spray, carrot. Format: in vivo. As to conditions: soil surface spray 2.8 kg/ha, 21 days, 0=no effect, 100=complete kill.
Description: as §2

The subject of assay [14] is Mustard (Sinapis alba). Briefly: Soil incorporation (attaclay/sand dust), growth regulatory or herbicidal effects, mustard. The assay is classed as in vivo. As to conditions: 504 h, soil incorporation 26 ppm, 21 days, 0=no effect, 100=complete kill, read-out: growth regulatory or herbicidal effect score. In outline: as §1
For assay [15], the system named is Peas (Pisum sativum). As to the kind of experiment: Post-emergence foliar spray, herbicidal/growth regulant response, peas. Format: in vivo. Particulars: Lathyrus oleraceus, 168 h, foliar spray 11.2 kg/ha, 7 days, 0=no effect, 100=complete kill, read-out: herbicidal or growth regulant response index. A digest of the protocol: as §3
In assay [16] the test system is Fathen (Chenopodium album). Briefly: Pre-emergence soil surface spray, fathen. Format: in vivo. As to conditions: soil surface spray 2.8 kg/ha, 21 days, 0=no effect, 100=complete kill.
Description: as §2

The subject of assay [17] is French beans (Phaseolus vulgaris). Briefly: Post-emergence foliar spray, herbicidal/growth regulant response, French beans. Particulars: foliar spray 11.2 kg/ha, 7 days, 0=no effect, 100=complete kill. Format: in vivo. The procedure: Seeds of the plant species listed below were sown in anodised aluminium pans, 19 cm long×9.5 cm wide×5 cm deep, containing John Innes I potting compost. They were then watered and placed in a controlled environment room (22° C.; 65-85% relative humidity; 14 hours per day artificial illumination at 13,000 lux). Fourteen days after sowing, the seedlings received a foliar spray of a compound listed below, formulated as a solution in 1:1 by volume aqueous acetone. The concentration of active ingredient and volume of application were adjusted so as to be equivalent to a rate of 11.2 kg/ha in 450 liters per hectare. After seven days growth in the controlled environment room, the plants were visually assessed for any herbicidal or growth regulant response. All differences from the untreated control were scored according to an index where 0=no effect and 100=complete kill.
The product of Example 95 was tested according to the procedure of Examples 49-55.

Assay [18] has as its system Wheat (Triticum aestivum). As to the kind of experiment: Pre-emergence soil surface spray, wheat. The assay is classed as in vivo. Particulars: soil surface spray 2.8 kg/ha, 21 days, 0=no effect, 100=complete kill.
Description: as §2

Another assay deals with Xanthomonas malvacearum. Briefly: Bacterial growth in dextrose nutrient broth. Format: cell-based. As to conditions: 200 ppm weight/volume; 8 days incubation at 25° C. Here is the method: A 1% suspension/solution of the product of Example 157 in polyethylene glycol (Carbowax 400) was added to a dextrose nutrient broth to give a concentration of 1,000 parts per million (ppm) weight/volume of medium. Dilution in test tubes was then carried out to give a concentration of 200 ppm weight/volume of medium. To 8 ml quantities of broth was added 0.2 ml of a dense broth culture of the bacterium causing black arm of cotton, Xanthomonas malvacearum. After 8 days incubation at 25° C., all the broth specimens were examined for signs of bacterial growth.

On to `CNC(=O)ON=C(C)CN(c1c(C)cccc1C)S(C)(=O)=O` [Example 248, N-[2-(methylcarbamoyloxyimino)propyl]-2',6'-dimethylmethanesulphonanilide], for which, in the assay on acetylcholinesterase, the inhibition of acetylcholinesterase was determined as 30%.

Take `CCOC(=O)C(C)N(c1c(C)cccc1Cl)S(C)(=O)=O` (stereo not drawn) [Example 22]: the pest or weed control at 26 µg/mL in the assay on Peas (Pisum sativum) [1] stood at 0%; in assay [4], 100%; in assay [12], 90%; in the assay with Mustard (Sinapis alba) [14], 100%. The “growth regulatory or herbicidal effect score” value came to 40 in assay [2]; 50 in [5]; 0 with Barley (Hordeum vulgare); 40 in [6]; 90 in the assay on Mustard (Sinapis alba) [7]; 0 in assay [8]. Further, the “growth regulatory or herbicidal effect score” value with Cotton (Gossypium sp.) was 0; with Wild Oat (Avena fatua), 0; in [10], 90; in the assay with Carrot (Daucus carota), 0; in assay [16] it was 100; in [18] it was 0. Besides, the plant injury at 11200 g/ha in the assay on Oat (Avena sativa) came to 5%; in assay [3], 80%. Further, the plant injury at 26 µg/mL in the assay with Oats (Avena sativa) and in the assay on Maize (Zea mays) was 50% in each case. Further, the pest or weed control at 11200 g/ha in assay [9] stood at 30%; in the assay with Mustard (Sinapis alba) [11], 80%; in assay [13], 5%; in the assay with Peas (Pisum sativum) [15] it was 5%. Besides, the “herbicidal or growth regulant response index” value in assay [17] stood at 80.

As to `CS(=O)(=O)N(CC(N)=S)c1cccc(Cl)c1Cl` [Example 157], in the assay on Xanthomonas malvacearum, the bacterial growth result is listed as “No growth occurred”.
